# Experimental data taken from patent publication US20250009743A1, “METHODS OF TREATING CANCERS USING STING AGONISTS” (Dana-Farber Cancer Institute, Inc., priority 2021, published 2025).
# Assays:
# orthotopic BP tumors = assay: BP (Brca1−/− Trp53−/−) orthotopic tumor growth in FVB mice; assay type: in vivo, mouse
# Experimental: Primary mammary tumor cells for orthotopic injection were resuspended in serum-free DMEM containing 40% matrigel (Corning). […] Tumor growth was examined by measuring the greatest longitudinal diameter (length) and the greatest transverse diameter (width) with digital calipers, and tumor volume was calculated by use of the modified ellipsoid formula (0.52×length×width2). Tumors were measured 2-3 times a week. All tumor measurements within single cohorts were performed by the same researcher. Tumor-bearing mice were randomized prior to start of treatment. Drug treatments were started when mean tumor volumes approximated 50-100 mm3. Mice were euthanized by CO2 inhalation when tumor volumes met humane endpoints described in the IACUC (20 mm diameter) protocols or upon severe health deterioration.
# For intratumoral injection (i.t.), 250 μg DMXAA (approximately 10 mg/kg body weight) was administered once per week for 3 doses. For i.p. injections, DMXAA was administered at a dose of 10 mg/kg body weight once weekly and terminated if tumor size exceeded 600 mm3. […] Anti-mouse CSF1R antibody (CS7, Eli Lilly) was dosed at 40 mg/kg via i.p. every 3 days.
# bone marrow-derived DCs = assay: STING pathway activation in DCs co-cultured with BP tumor cells; assay type: cell-based, mouse
# Experimental: For flow cytometry analyses of tumor and TDLN samples, single-cell suspensions were obtained as described above (Tissue Digestion). Cells were stained in cold FACS buffer (PBS containing 0.2% BSA and 5 mM EDTA) with LIVE/DEAD Fixable Aqua Dead Cell Stain (Thermo Fisher) for 30 min on ice, followed by blocking with anti-CD16/32 (BioLegend) for 20 min on ice. Cells were then incubated in FACS buffer for 30 min on ice with antibodies specific to CD45 (clone 30-F11, BioLegend), TCR β chain (clone H57-597, BioLegend), CD38 (clone 145-2C11, BioLegend), CD4 (clone RM4-5, BioLegend), CD8a (clone 53-6.7, BioLegend), PD-1 (clone 29F.1A12, BioLegend), CD44 (clone IM7, BioLegend), CD62L (clone MEL-14, BioLegend), IFN-γ (clone XMG1.2, BioLegend), TNF-α (clone MP6-XT22, BioLegend), Granzyme B (clone NGZB, eBioscience), CD11c (clone N418, BioLegend), I-A/I-E (clone M5/114.15.2, BioLegend), CD80 (clone 16-10A1, BioLegend), CD86 (clone GL-1, BioLegend), CD103 (clone 2E7, BioLegend), CD11b (M1/70, BioLegend), F4/80 (clone BM8, BioLegend), phospho-TBK1 (Ser172) (clone D52C2, Cell Signaling Tech.) or phospho-IRF-3 (Ser396) (clone D601M, Cell Signaling Tech.). For intracellular staining, Foxp3/Transcription Factor Staining Buffer Set (eBioscience, #00-5523-00) was used for fixation and permeabilization. […] All data were analyzed using FlowJo software. […]
# human BMDMs = assay: Polarization of human BMDMs cultured in CM from ovarian PDXs; assay type: cell-based
# Experimental: For ex vivo culture of human macrophages, human BMDMs were generated from bone marrow mononuclear cells (BMMs) (CAT #70001) obtained from […] Technologies. Briefly, BMMs were cultured in DMEM containing 10% FBS, 55 μM 2-Mercaptoethanol (CAT #21985023, Thermo Fisher) and 50 ng/ml M-CSF for 5-7 days with media replacement every 3 days to obtain matured macrophages (BMDMs). […] Flow cytometry analysis was preformed to analyze the phenotypes of macrophages for both mouse and human BMDMs.
# [1] = tested on: BMDMs generated from FVB/NJ mice; assay: Polarization of mouse BMDMs cultured in PBM / PBM-R conditioned medium; assay type: cell-based
# Experimental: For ex vivo culture of mouse macrophages, bone marrow cells were isolated from FVB/NJ mice and cultured in DMEM containing 10% FBS, 55 μM 2-Mercaptoethanol and 20 ng/ml M-CSF. BMDMs (bone marrow derived macrophages) were harvested on day 7 and further cultured in 2.0 ml control medium (90% DMEM, 10% FBS, 55 μM 2-Mercaptoethanol and 5 ng/ml M-CSF) described above or the medium containing 50% tumor cell conditioned medium for 72 hrs before analysis. For the tumor cell conditioned medium, about 3×10^5 tumor cells were cultured in 6-well plate for 24 hrs and then treated with DMSO or olaparib. After 24 hrs incubation with DMSO or olaparib, the tumor cells were washed twice with PBS and cultured in DMEM containing 10% FBS for 48 hrs. The tumor cell conditioned medium was collected by centrifugation at 1,500 g for 5 min at 4° C. to remove all the debris and cells. For the cytokine blocking experiment, monoclonal antibodies that specific to each cytokine were added to the tumor cell conditioned medium before it was applied to culture macrophages.
# [2] = olaparib 50 mg/kg i.p. q.d., DMXAA 10 mg/kg intratumoral once per week, 3 doses, start around 100 mm3, FIG. 9A
SMILES,BP tumor growth (orthotopic BP tumors; [2]),"activation of STING pathway in co-cultured DCs (bone marrow-derived DCs; BP cells treated with CM of DMXAA-pre-treated TEMs, then olaparib, FIG. 7I)","M2-like macrophage polarization induced by ovarian PDXs (human BMDMs; MSA-2 added, FIG. 25E)","M1/M2 ratio ([1]; BMDMs in 50% PBM-R-CM, ADU-S100 10 μM or MSA-2 5 ug/ml, two days, FIG. 21B)","BP tumor growth (orthotopic BP tumors; olaparib 50 mg/kg i.p. daily, FIG. 1C)","M2-like polarization induced by ovarian PDXs (human BMDMs; CM of olaparib-treated PDXs, FIG. 25C)",M2-like TAM polarization of BMDMs by CM from olaparib-treated PBM cells (PBM-OLA-CM) ([1]; FIG. 19E),"STING pathway activation (p-TBK1+ p-IRF3+) in DCs (bone marrow-derived DCs; DCs co-cultured 24 hours with olaparib-treated BP cells, FIG. 5I)"
"Cc1ccc2c(=O)c3cccc(CC(=O)O)c3oc2c1C [DMXAA, 5,6-dimethyl-xanthenone-4-acetic acid]",modest tumor growth inhibition,restored,–,–,–,–,–,–
COc1cc2cc(C(=O)CCC(=O)O)sc2cc1OC [MSA-2],–,–,reversed,significantly increased,–,–,–,–
O=C(c1cc(Cc2n[nH]c(=O)c3ccccc23)ccc1F)N1CCN(C(=O)C2CC2)CC1 [olaparib],modest tumor growth inhibition,–,–,–,modest,further enhance,stronger effect on M2-like TAM polarization of BMDMs than PBM-CM,activated the STING pathway in DCs
